Reference: patent US20070093520A1, “Method of treatment of diarrhea-predominant irritable bowel syndrome in a subject” (priority 2005, published 2007)

Tested on: diarrhea-predominant IBS subjects
Test: 3007 Study: open-label 52-week safety study, adverse events and withdrawals
Conditions: Study 3007; for Number of subjects who died / Primary reason for withdrawal: Adverse event and lack of efficacy / Primary reason for withdrawal: Baseline complaint/adverse event / Primary reason for withdrawal: Lack of efficacy: all enrolled

Cc1nccn1C[C@H]1CCc2c(c3cccc4c3n2CCC4)C1=O [cilansetron, (R)-(−)-4,5,6,8,9,10-hexahydro-10-[(2-methyl-1H-imidazol-1-yl)methyl]-11H-pyrido-[3,2,1-jk]-carbazol-11-one]
SAE: Hepatitis NOS (C/C): 1 (<1%) n (%)
SAE: Hepatobiliary Disorders (C/C): 2 (<1%) n (%)
SAE: Immune System Disorders (C/C): 0 n (%)
SAE: Infections and Infestations (C/C): 1 (<1%) n (%)
SAE: Injury, Poisoning and Procedural Complications (C/C): 2 (<1%) n (%)
SAE: Irritable Bowel Syndrome Aggravated (C/C): 1 (<1%) n (%)
SAE: Leiomyoma NOS (C/C): 1 (<1%) n (%)
SAE: Loss of Consciousness (C/C): 1 (<1%) n (%)
SAE: Myocardial Infarction (C/C): 1 (<1%) n (%)
SAE: Neoplasms Benign, Malignant and Unspecified (Incl Cysts and Polyps) (C/C): 3 (1%) n (%)
SAE: Nervous System Disorders (C/C): 2 (<1%) n (%)
SAE: Non-Accidental Overdose (C/C): 1 (<1%) n (%)
SAE: Ovarian Cancer NOS* (C/C): 1 (<1%) n (%)
SAE: Ovarian Cystadenofibroma* (C/C): 0 n (%)
SAE: Pregnancy NOS* (C/C): 1 (<1%) n (%)
SAE: Pregnancy, Puerperium and Perinatal Conditions (C/C): 1 (<1%) n (%)
SAE: Psychiatric Disorders (C/C): 0 n (%)
SAE: Psychotic Disorder NOS (C/C): 0 n (%)
SAE: Renal and Urinary Disorders (C/C): 1 (<1%) n (%)
SAE: Reproductive System and Breast Disorders (C/C): 2 (<1%) n (%)
SAE: Respiratory, Thoracic and Mediastinal Disorders (C/C): 0 n (%)
SAE: Sinusitis Acute NOS (C/C): 0 n (%)
SAE: Status Epilepticus (C/C): 1 (<1%) n (%)
SAE: Suicidal Ideation (C/C): 0 n (%)
SAE: Supraventricular Tachycardia (C/C): 0 n (%)
SAE: Urinary Tract Infection NOS (C/C): 0 n (%)
SAE: Uterine Polyp NOS* (C/C): 1 (<1%) n (%)
SAE: Vaginal Cyst* (C/C): 1 (<1%) n (%)
TEAEs that led to permanent discontinuation of study medication (C/C): 13%
Total Number of Subjects with at Least One Serious Adverse Event (C/C): 19 (7%) n (%)
subjects with at least one TEAE (C/C): 86%
subjects with at least one treatment-emergent SAE (C/C): 7%
withdrawal for AE (C/C): 13%
withdrawal for lack of efficacy (C/C): 17%
Number of deaths (C/C (N = 257)): 0 n (%)
Number of subjects who permanently discontinued study medication due to a TEAE (as reported on the AE CRF) (C/C (N = 257)): 33 (13) n (%)
Number of subjects with at least one AE of special interest (C/C (N = 257)): 186 (72) n (%)
Number of subjects with at least one SAE (C/C (N = 257)): 19 (7) n (%)
Number of subjects with at least one TEAE (C/C (N = 257)): 220 (86) n (%)
Number of subjects with at least one TEAE leading to dose reduction (C/C (N = 257)): 7 (3) n (%)
Number of subjects with at least one related TEAE (C/C (N = 257)): 151 (59) n (%)
Number of subjects with at least one severe TEAE (C/C (N = 257)): 50 (19) n (%)
Number of subjects who died (C/C): 0 n (%)
Primary reason for withdrawal: Adverse event and lack of efficacy (C/C): 23 (9) n (%)
Primary reason for withdrawal: Baseline complaint/adverse event (C/C): 10 (4) n (%)
Primary reason for withdrawal: Lack of efficacy (C/C): 20 (8) n (%)
Number of deaths (Overall (N = 536)): 0 n (%)
Number of subjects who permanently discontinued study medication due to a TEAE (as reported on the AE CRF) (Overall (N = 536)): 83 (15) n (%)
Number of subjects with at least one AE of special interest (Overall (N = 536)): 371 (69) n (%)
Number of subjects with at least one SAE (Overall (N = 536)): 29 (5) n (%)
Number of subjects with at least one TEAE (Overall (N = 536)): 437 (82) n (%)
Number of subjects with at least one TEAE leading to dose reduction (Overall (N = 536)): 11 (2) n (%)
Number of subjects with at least one related TEAE (Overall (N = 536)): 301 (56) n (%)
Number of subjects with at least one severe TEAE (Overall (N = 536)): 94 (18) n (%)
Number of subjects who died (Overall): 0 n (%)
Primary reason for withdrawal: Adverse event and lack of efficacy (Overall): 57 (10) n (%)
Primary reason for withdrawal: Baseline complaint/adverse event (Overall): 24 (4) n (%)
Primary reason for withdrawal: Lack of efficacy (Overall): 45 (8) n (%)
SAE: Abdominal Pain Upper (P/C): 0 n (%)
SAE: Adenomyosis* (P/C): 0 n (%)
SAE: Angina Pectoris (P/C): 0 n (%)
SAE: Appendicitis (P/C): 0 n (%)
SAE: Asthma NOS (P/C): 1 (<1%) n (%)
SAE: Benign Ovarian Tumour* (P/C): 1 (<1%) n (%)
SAE: Bladder Prolapse (P/C): 1 (<1%) n (%)
SAE: Bone Neoplasm Malignant (P/C): 0 n (%)
SAE: Breast Cancer NOS* (P/C): 2 (1%) n (%)
SAE: Bronchopneumonia NOS (P/C): 1 (<1%) n (%)
SAE: Calculus Ureteric (P/C): 0 n (%)
SAE: Cardiac Disorders (P/C): 1 (<1%) n (%)
SAE: Chest Pain (P/C): 1 (<1%) n (%)
SAE: Cholelithiasis (P/C): 0 n (%)
SAE: Colitis Ischaemic (P/C): 1 (<1%) n (%)
SAE: Depression (P/C): 1 (<1%) n (%)
SAE: Endometriosis* (P/C): 0 n (%)
SAE: Fibroma NOS (P/C): 1 (<1%) n (%)
SAE: Food Allergy (P/C): 1 (<1%) n (%)
SAE: Gastritis NOS (P/C): 0 n (%)
SAE: Gastroenteritis NOS (P/C): 0 n (%)
SAE: Gastrointestinal Disorders (P/C): 1 (<1%) n (%)
SAE: General Disorders and Administration Site Conditions (P/C): 1 (<1%) n (%)
SAE: Hallucination NOS (P/C): 1 (<1%) n (%)
SAE: Hallucination, Auditory (P/C): 1 (<1%) n (%)
SAE: Heat Exhaustion (P/C): 0 n (%)
SAE: Hepatitis NOS (P/C): 0 n (%)
